Results published in patent publication US12303474B2, “S-enantiomerically enriched compositions of beta blockers for treating amyotrophic lateral sclerosis” (priority 2013, dated 2025).
Entries after “also recorded” stand apart in the source; their conditions may differ. Read-outs that look alike come from different tables or passages of the source. Marks after values point to notes of the source that are not given here.

Key:
[1] = test system: G93A SOD1 B6SJL hybrid (G93A) model; assay: Body weight and body composition (lean mass, fat mass; NMR scans) in G93A SOD1 transgenic mice; type: in vivo; settings: for Average Δ body weight / Average Δ fat mass / Average Δ lean mass: per day alive after disease onset
Excerpt: (§1) Transgenic mice over-expressing a high copy number (25 copies) of mutated human SOD1 gene with a G93A point mutation, i.e., B6SJL-TgN [SOD1-G93A]1 Gur (G1H-G93A transgenic mice, JR2726; Hemizygote) (Gurney M E, et al., Science, 264, 1772-1775, 1994) (“G93A SOD1 B6SJL hybrid (G93A) model”), were used.
[…] […] There were 16 mice in the S-oxprenolol group.
The primary endpoint was survival, humanely defined as the ability of the animal to right itself in 30 seconds after being laid on its side. Secondary endpoints were body weight, body composition, spontaneous activity and food intake. Body weight of the animals was assessed weekly until onset of disease. Additionally, body composition (fat mass and lean body mass) was assessed using NMR scans (EchoMRI-100, Echo Medical Systems, Houston, USA) every 4 days. After onset of disease, body weight and body composition were assessed every two days until the end of the study. All personal handling the animals was strictly blinded to the randomized treatment allocation.
To study the effect of S-oxprenolol on body weight, body weight was monitored over time.
To study the effect of the test compounds on lean body mass, lean mass was determined at the end of the study.
To study the effect of the test compounds on fat mass, the fat mass were determined at the end of the study.
To study the effect of S-oxprenolol on body weight, body weight was monitored over time. […] The number of all mice in the population is indicated as “n” in at the bottom of FIGS. 20A-20C.
To study the effect of the test compounds on lean body mass, lean mass was determined at the end of the study. […] The number of all mice in the population is indicated as “n” in at the bottom of FIGS. 20D-20F.
To study the effect of the test compounds on fat mass, the fat mass were determined at the end of the study. […] The number of all mice in the population is indicated as “n” in at the bottom of FIGS. 20G-20I.

[2] = test system: G93A SOD1 B6SJL hybrid (G93A) model; settings: for Heart / gastrocnemius: end of study;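 as to HR (hazard ratio) survival vs placebo, FIG. 2: dosing began after ALS onset in G93A SOD1 mice, with survival as the endpoint, defined humanely as the animal failing to regain upright posture within 30 s when placed sideways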;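 as to percent survival, comparison in words (FIGS. 2-4): dosing began after ALS onset in G93A SOD1 mice, with survival as the endpoint, defined humanely as the animal failing to regain upright posture within 30 s when placed sideways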
Experimental: as §1
To study the effect of the test compounds on skeletal muscle atrophy, the skeletal muscle mass were determined at the end of the study.
The number of all mice in the population is indicated as “n” in at the bottom of FIGS. 21A-21C.
The number of all mice in the population is indicated as “n” in at the bottom of FIGS. 20D-20F.
The number of all mice in the population is indicated as “n” in at the bottom of FIGS. 21G-21I.

[3] = test system: G93A SOD1 B6SJL hybrid (G93A) model;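 as to HR (hazard ratio) survival vs placebo, FIG. 2: dosing began after ALS onset in G93A SOD1 mice, with survival as the endpoint, defined humanely as the animal failing to regain upright posture within 30 s when placed sideways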;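 as to percent survival, comparison in words (FIGS. 2-4): dosing began after ALS onset in G93A SOD1 mice, with survival as the endpoint, defined humanely as the animal failing to regain upright posture within 30 s when placed sideways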
Excerpt: To study the effect of S-oxprenolol on survival, survival was monitored over time.

[4] = test system: G93A SOD1 B6SJL hybrid (G93A) model; assay: Disease progression score (JAX SOP) in G93A SOD1 transgenic mice
Excerpt: The disease progression score is based on the JAX SOP (Ludolph A C, Bendotti C, Blaugrund E, Hengerer B, Loffler J P, Martin J, Meininger V, Meyer T, Moussaoui S, Robberecht W, Scott S, Silani V, Van Den Berg L H (ENMC Group For The Establishment Of Guidelines For The Conduct Of Preclinical And Proof Of Concept Studies In ALS/MND Models). 2007, which is incorporated by reference).

[5] = 10 mg/kg/day, S-pindolol 3 mg/kg/day
[6] = 20 mg/kg/day vs. S-Oxprenolol (20)

Structure (SMILES): C=CCOc1ccccc1OC[C@@H](O)CNC(C)C [S-oxprenolol, (S)-1-(2-(allyloxy)phenoxy)-3-(isopropylamino)propan-2-ol]
- change in lean body mass, in words (FIG. 6) ([1]; 10 mg/kg/day, end of study): less change in lean body mass than those receiving a placebo
- change in fat mass per survival day after ALS onset, in words (FIG. 13) [1, 5]: less change in fat mass than those receiving S-pindolol
- change in lean body mass per survival day after ALS onset, in words (FIG. 7) [1, 5]: less change in lean body mass than those receiving S-pindolol
- change of body weight per survival day after ALS onset, in words (FIG. 5) [1, 5]: body weight loss that was close to those administered S-pindolol; also recorded: less body weight loss than those in the placebo group
- Wasting of lean mass reduced compared to placebo (FIG. 6) ([1]; 10 mg/kg/day, p=0.18): about 40%
- Δ body weight ([1]; all mice, 10 mg/kg/d): -5.4 ± 0.43 g
- Δ fat mass ([1]; all mice, 10 mg/kg/d): -1.26 ± 0.14 g
- Δ lean mass ([1]; all mice, 10 mg/kg/d): -3.31 ± 0.33 g
- Average Δ body weight ([1]; all mice, 10 mg/kg/d): -123 ± 11.6 mg/day
- Average Δ fat mass ([1]; all mice, 10 mg/kg/d): -29.4 ± 3.7 mg/day
- Average Δ lean mass ([1]; all mice, 10 mg/kg/d): -89.6 ± 9.1 mg/day
- Δ body weight ([1]; all mice, 20 mg/kg/d): -5.56 ± 0.47 g
- Δ fat mass ([1]; all mice, 20 mg/kg/d): -1.56 ± 0.18 g
- Δ lean mass ([1]; all mice, 20 mg/kg/d): -4.78 ± 0.41 g
- Average Δ body weight ([1]; all mice, 20 mg/kg/d): −99.4 ± 9.7^p=0.064 mg/day
- Average Δ fat mass ([1]; all mice, 20 mg/kg/d): -29.8 ± 3.6 mg/day
- Average Δ lean mass ([1]; all mice, 20 mg/kg/d): -93.3 ± 7.5 mg/day
- change in fat mass, in words (FIG. 12) ([1]; end of study, p>0.5): no effect on the loss of fat mass
- Δ body weight ([1]; female mice, 10 mg/kg/d): -4.51 ± 0.55 g
- Δ fat mass ([1]; female mice, 10 mg/kg/d): −1.17 ± 0.21^p=0.059 g
- Δ lean mass ([1]; female mice, 10 mg/kg/d): -3.99 ± 0.37 g
- Average Δ body weight ([1]; female mice, 10 mg/kg/d): -103.3 ± 16.1 mg/day
- Average Δ fat mass ([1]; female mice, 10 mg/kg/d): -25.9 ± 4.8 mg/day
- Average Δ lean mass ([1]; female mice, 10 mg/kg/d): -69.2 ± 10.8 mg/day
- Δ body weight ([1]; female mice, 20 mg/kg/d): -4.57 ± 0.55 g
- Δ fat mass ([1]; female mice, 20 mg/kg/d): -1.29 ± 0.17 g
- Δ lean mass ([1]; female mice, 20 mg/kg/d): -3.97 ± 0.49 g
- Average Δ body weight ([1]; female mice, 20 mg/kg/d): -82.0 ± 13.6 mg/day
- Average Δ fat mass ([1]; female mice, 20 mg/kg/d): −26.8 ± 4.4^+ mg/day
- Average Δ lean mass ([1]; female mice, 20 mg/kg/d): 90.7 ± 10.9 mg/day
- Δ body weight ([1]; male mice, 10 mg/kg/d): -6.57 ± 0.57 g
- Δ fat mass ([1]; male mice, 10 mg/kg/d): -1.44 ± 0.19 g
- Δ lean mass ([1]; male mice, 10 mg/kg/d): -3.67 ± 0.49 g
- Average Δ body weight ([1]; male mice, 10 mg/kg/d): -150.3 ± 14.5 mg/day
- Average Δ fat mass ([1]; male mice, 10 mg/kg/d): -33.6 ± 5.7 mg/day
- Average Δ lean mass ([1]; male mice, 10 mg/kg/d): -115.1 ± 13.9 mg/day
- Δ body weight ([1]; male mice, 20 mg/kg/d): -6.36 ± 0.67 g
- Δ fat mass ([1]; male mice, 20 mg/kg/d): -1.78 ± 0.28 g
- Δ lean mass ([1]; male mice, 20 mg/kg/d): -5.34 ± 0.56 g
- Average Δ body weight ([1]; male mice, 20 mg/kg/d): -115.7 ± 12.6 mg/day
- Average Δ fat mass ([1]; male mice, 20 mg/kg/d): -32.1 ± 5.4 mg/day
- Average Δ lean mass ([1]; male mice, 20 mg/kg/d): -95.8 ± 10.6 mg/day
- gastrocnemius weight over days after onset, in words (FIG. 9) ([2]; 10 mg/kg/day): steady
- tibialis anterior muscle weight over days after onset, in words (FIG. 11) ([2]; 10 mg/kg/day): steady
- correlation R of tibialis anterior muscle weight with days after onset (=survival), FIG. 11 ([2]; 10 mg/kg/day, p=0.72, placebo R: −0.67): 0.15
- correlation R of gastrocnemius weight with days after onset (=survival), FIG. 9 ([2]; 10 mg/kg/day, p=0.94, placebo R: −0.56): −0.03
- BAT (brown adipose tissue) ([2]; all mice, 10 mg/kg/d): 46.8 ± 3.5 mg
- EDL (extensor digitorum longus) ([2]; all mice, 10 mg/kg/d): 7.18 ± 0.34 mg
- soleus ([2]; all mice, 10 mg/kg/d): 5.89 ± 0.35 mg
- Heart ([2]; all mice, 10 mg/kg/d): 108.6 ± 5.8 mg
- gastrocnemius ([2]; all mice, 10 mg/kg/d): 55.1 ± 4.0 mg
- BAT (brown adipose tissue) ([2]; all mice, 20 mg/kg/d): 43.7 ± 2.3 mg
- EDL (extensor digitorum longus) ([2]; all mice, 20 mg/kg/d): 7.791 ± 0.29*^+++ mg
- soleus ([2]; all mice, 20 mg/kg/d): 6.42 ± 0.39 mg
- Heart ([2]; all mice, 20 mg/kg/d): 104.1 ± 3.5 mg
- gastrocnemius ([2]; all mice, 20 mg/kg/d): 50.1 ± 2.9 mg
- BAT (brown adipose tissue) ([2]; female mice, 10 mg/kg/d): 39.4 ± 4.2 mg
- EDL (extensor digitorum longus) ([2]; female mice, 10 mg/kg/d): 7.03 ± 0.51 mg
- soleus ([2]; female mice, 10 mg/kg/d): 5.71 ± 0.48 mg
- Heart ([2]; female mice, 10 mg/kg/d): 92.3 ± 3.2^p=0.064 mg
- gastrocnemius ([2]; female mice, 10 mg/kg/d): 50.5 ± 4.0*^p=0.060 ^vs propanolol mg
- BAT (brown adipose tissue) ([2]; female mice, 20 mg/kg/d): 37.1 ± 2.9 mg
- EDL (extensor digitorum longus) ([2]; female mice, 20 mg/kg/d): 7.29 ± 0.42*^$ mg
- soleus ([2]; female mice, 20 mg/kg/d): 6.15 ± 0.30 mg
- Heart ([2]; female mice, 20 mg/kg/d): 92.8 ± 3.0 mg
- gastrocnemius ([2]; female mice, 20 mg/kg/d): 46.2 ± 3.9 mg
- BAT (brown adipose tissue) ([2]; male mice, 10 mg/kg/d): 53.2 ± 5.0 mg
- EDL (extensor digitorum longus) ([2]; male mice, 10 mg/kg/d): 7.28 ± 0.47 mg
- soleus ([2]; male mice, 10 mg/kg/d): 6.04 ± 0.53 mg
- Heart ([2]; male mice, 10 mg/kg/d): 122.6 ± 8.8 mg
- gastrocnemius ([2]; male mice, 10 mg/kg/d): 59.1 ± 6.6 mg
- BAT (brown adipose tissue) ([2]; male mice, 20 mg/kg/d): 46.5 ± 3.0 mg
- EDL (extensor digitorum longus) ([2]; male mice, 20 mg/kg/d): 8.15 ± 0.39^$$$ mg
- soleus ([2]; male mice, 20 mg/kg/d): 6.58 ± 0.61 mg
- Heart ([2]; male mice, 20 mg/kg/d): 112.4 ± 4.5 mg
- gastrocnemius ([2]; male mice, 20 mg/kg/d): 53.1 ± 4.3 mg
- percent survival, comparison in words (FIGS. 2-4) ([3]; 10 mg/kg/day): longer survival than those in the placebo group; also recorded: significantly superior to either placebo or S-pindolol at its preferred dose; also recorded: significantly superior to either placebo or the other compounds
- HR (hazard ratio) survival vs placebo, FIG. 2 ([3]; 10 mg/kg/day, 95% CI: 0.171-0.88, p=0.0241): 0.39
- Median survival ratio vs placebo ([3]; 10 mg/kg/day, 95% CI: 0.83-1.81): 1.32
- Median survival after onset of ALS symptoms ([3]; 10 mg/kg/day, placebo 28 days): 37 days
- survival, days after onset ([3]; 10 mg/kg/day, placebo 42 days): 56 days
- survival improved compared to placebo treated mice ([3]; G93A mice, 10 mg/kg/day after onset of ALS): about 33%
- percent survival, comparison in words (FIG. 14) ([3]; all mice, 20 mg/kg/day): longer survival than other groups
- HR survival (FIG. 14) ([3]; all mice, 10 mg/kg/day vs. placebo): 0.71
- HR survival (FIG. 14) ([3]; all mice, 20 mg/kg/day vs. placebo): 0.45
- percent survival, comparison in words (FIG. 16) ([3]; female mice, 20 mg/kg/day): longer survival than other groups
- HR survival (FIG. 16) ([3]; female mice, 10 mg/kg/day vs. placebo): 0.96
- HR survival (FIG. 16) ([3]; female mice, 20 mg/kg/day vs. placebo): 0.53
- percent survival, comparison in words (FIG. 15) ([3]; male mice, 20 mg/kg/day): longer survival than other groups
- HR survival (FIG. 15) ([3]; male mice, 10 mg/kg/day vs. placebo): 0.46
- HR survival (FIG. 15) ([3]; male mice, 20 mg/kg/day vs. placebo): 0.39
- HR Progression from score 1 to score 2 (FIG. 17) ([4]; 10 mg/kg/day vs. placebo): 0.56
- HR Progression from score 1 to score 3 (FIG. 19) ([4]; 10 mg/kg/day vs. placebo): 0.73
- HR Progression from score 2 to score 3 (FIG. 18) ([4]; 10 mg/kg/day vs. placebo): 1.07
- HR Progression from score 1 to score 2 (FIG. 17) [4, 6]: 1.17
- HR Progression from score 1 to score 3 (FIG. 19) [4, 6]: 1.48
- HR Progression from score 2 to score 3 (FIG. 18) [4, 6]: 1.20
- HR Progression from score 1 to score 2 (FIG. 17) ([4]; 20 mg/kg/day vs. placebo): 0.51
- HR Progression from score 1 to score 3 (FIG. 19) ([4]; 20 mg/kg/day vs. placebo): 0.47
- HR Progression from score 2 to score 3 (FIG. 18) ([4]; 20 mg/kg/day vs. placebo): 0.64
